Laboratory results as given in patent publication US20100267561A1, “HERBICIDAL PYRIDAZINONE DERIVATIVES” (priority 2007, published 2010).

Legend:
Type in all cases: in vivo
[1] = system: rice (Oryza sativa); experiment: Test B flooded paddy test plant response
Summary of the method: (§1)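 Paddy-water application to 2-leaf plants in pots held under 3 cm of flooding; response is a 0–100 visual control rating against controls after 13 to 15 days, and a dash marks a missing result.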

[2] = system: umbrella sedge (Cyperus difformis); experiment: Test B flooded paddy test plant response
Summary of the method: as §1

[3] = system: barnyardgrass (Echinochloa crus-galli); experiment: Test B flooded paddy test plant response
Summary of the method: as §1

[4] = system: ducksalad (Heteranthera limosa); experiment: Test B flooded paddy test plant response
Summary of the method: as §1

[5] = system: goosegrass (Eleusine indica); experiment: Test B pre-/postemergence plant response; conditions: for Goosegrass plant response rating: 8 g ai/ha
Source text: (§2) Seeds of plant species selected from blackgrass (Alopecurus myosuroides), downy bromegrass (Bromus tectorum), green foxtail (Setaria viridis), Italian ryegrass (Lolium multiflorum), wheat (Triticum aestivum), wild oat (Avena fatua), catchweed bedstraw (Galium aparine), bermudagrass (Cynodon dactylon), surinam grass (Brachiaria decumbens), cocklebur (Xanthium strumarium), corn (Zea mays), large crabgrass (Digitaria sanguinalis), woolly cupgrass (Eriochloa villosa), giant foxtail (Setaria faberii), goosegrass (Eleusine indica), johnsongrass (Sorghum halepense), kochia (Kochia scoparia), lambsquarters (Chenopodium album), morningglory (Ipomoea coccinea), eastern black (E.B.) nightshade (Solanum ptycanthum), yellow nutsedge (Cyperus esculentus), pigweed (Amaranthus retroflexus), common ragweed (Ambrosia elation), Russian thistle (Salsola iberica), soybean (Glycine max), common (oilseed) sunflower (Helianthus annuus), and velvetleaf (Abutilon theophrasti) were planted and treated preemergence with test chemicals formulated in a non-phytotoxic solvent mixture which included a surfactant.
(§3) At the same time, plants selected from these crop and weed species and also winter barley (Hordeum vulgare), canarygrass (Phalaris minor), chickweed (Stellaria media) and windgrass (Apera spica-venti) were treated with postemergence applications of some of the test chemicals formulated in the same manner. Plants ranged in height from 2 to 18 cm (1- to 4-leaf stage) for postemergence treatments.
(§4) Plant species in the flooded paddy test consisted of rice (Oryza sativa), umbrella sedge (Cyperus difformis), ducksalad (Heteranthera limosa) and barnyardgrass (Echinochloa crus-galli) grown to the 2-leaf stage for testing. At time of treatment, test pots were flooded to 3 cm above the soil surface, treated by application of test compounds directly to the paddy water, and then maintained at that water depth for the duration of the test. Treated plants and controls were maintained in a greenhouse for 13 to 15 days, after which time all species were compared to controls and visually evaluated. Plant response ratings, summarized in Table B, are based on a scale of 0 to 100 where 0 is no effect and 100 is complete control. A dash (-) response means no test result.

[6] = system: lambsquarters (Chenopodium album); experiment: Test B pre-/postemergence plant response; conditions: for Lambsquarters plant response rating: 8 g ai/ha
Source text: as §2, §3, §4

[7] = system: bermudagrass (Cynodon dactylon); experiment: Test B pre-/postemergence plant response; conditions: for Bermudagrass plant response rating: 8 g ai/ha
Source text: as §2, §3, §4

[8] = system: cocklebur (Xanthium strumarium); experiment: Test B pre-/postemergence plant response; conditions: for Cocklebur plant response rating: 8 g ai/ha
Source text: as §2, §3, §4

[9] = system: Italian ryegrass (Lolium multiflorum); experiment: Test B pre-/postemergence plant response; conditions: for Ryegrass, Italian plant response rating: 8 g ai/ha
Source text: as §2, §3, §4

[10] = system: large crabgrass (Digitaria sanguinalis); experiment: Test B pre-/postemergence plant response; conditions: for Crabgrass, Large plant response rating: 8 g ai/ha
Source text: as §2, §3, §4

[11] = system: common ragweed (Ambrosia elation); experiment: Test B pre-/postemergence plant response; conditions: for Ragweed plant response rating: 8 g ai/ha
Source text: as §2, §3, §4

[12] = system: soybean (Glycine max); experiment: Test B pre-/postemergence plant response; conditions: for Soybean plant response rating: 8 g ai/ha
Source text: as §2, §3, §4

[13] = system: velvetleaf (Abutilon theophrasti); experiment: Test B pre-/postemergence plant response; conditions: for Velvetleaf plant response rating: 8 g ai/ha
Source text: as §2, §3, §4

[14] = system: Russian thistle (Salsola iberica); experiment: Test B pre-/postemergence plant response; conditions: Preemergence; for Russian Thistle plant response rating: 8 g ai/ha
Source text: as §2, §3, §4

[15] = Flood (flooded paddy test), 62 g ai/ha, scale 0 to 100, 0 no effect, 100 complete control
[16] = Flood (flooded paddy test), 125 g ai/ha, scale 0 to 100, 0 no effect, 100 complete control
[17] = Flood (flooded paddy test), 250 g ai/ha, scale 0 to 100, 0 no effect, 100 complete control
[18] = Flood, 31 g ai/ha, scale 0 to 100
[19] = Postemergence, 16 g ai/ha, scale 0 to 100
[20] = Postemergence, 31 g ai/ha, scale 0 to 100, 0 no effect, 100 complete control
[21] = Postemergence, 62 g ai/ha, scale 0 to 100
[22] = Preemergence, 16 g ai/ha, scale 0 to 100 (0 no effect, 100 complete control)
[23] = Preemergence, 31 g ai/ha, 0 to 100 scale, 0 no effect, 100 complete control
[24] = Preemergence, 62 g ai/ha, scale 0 to 100
[25] = 16 g ai/ha, scale 0 to 100 (0 no effect, 100 complete control)
[26] = 31 g ai/ha, 0 to 100 scale, 0 no effect, 100 complete control

**Q.** Which results are given for CCc1cc(-c2ccc(Cl)cc2)nn1-c1c(O)cnn(C)c1=O [Compound 21]?
**A.** Plant response rating, Rice [1, 15]: 0; Plant response rating, Rice [1, 16]: 20; Plant response rating, Rice [1, 17]: 70; Plant response rating, Rice [1, 18]: 0; Plant response rating, Sedge, Umbrella [2, 15]: 0; Plant response rating, Sedge, Umbrella [2, 16]: 0; Plant response rating, Sedge, Umbrella [2, 17]: 30; Plant response rating, Sedge, Umbrella [2, 18]: 0; Plant response rating, Barnyardgrass [3, 15]: 75; Plant response rating, Barnyardgrass [3, 16]: 80; Plant response rating, Barnyardgrass [3, 17]: 100; Plant response rating, Barnyardgrass [3, 18]: 55; Plant response rating, Ducksalad [4, 15]: 0; Plant response rating, Ducksalad [4, 16]: 0; Plant response rating, Ducksalad [4, 17]: 65; Plant response rating, Ducksalad [4, 18]: 0; Goosegrass plant response rating ([5]; postemergence, 0-100 scale): 65; Plant response rating, Goosegrass [5, 19]: 80; Plant response rating, Goosegrass [5, 20]: 95; Plant response rating, Goosegrass [5, 21]: 100; Plant response rating, Goosegrass [5, 22]: 80; Plant response rating, Goosegrass [5, 23]: 95; Plant response rating, Goosegrass [5, 24]: 100; Goosegrass plant response rating ([5]; Preemergence, scale 0 to 100): 10; Lambsquarters plant response rating ([6]; postemergence, 0-100 scale): 0; Plant response rating, Lambsquarters [6, 19]: 0; Plant response rating, Lambsquarters [6, 20]: 0; Plant response rating, Lambsquarters [6, 21]: 0; Plant response rating, Lambsquarters [6, 22]: 0; Plant response rating, Lambsquarters [6, 23]: 100; Plant response rating, Lambsquarters [6, 24]: 100; Lambsquarters plant response rating ([6]; Preemergence, scale 0 to 100): 0; Bermudagrass plant response rating ([7]; postemergence, 0-100 scale): 40; Plant response rating, Bermudagrass [7, 19]: 60; Plant response rating, Bermudagrass [7, 20]: 80; Plant response rating, Bermudagrass [7, 21]: 100; Bermudagrass plant response rating ([7]; Preemergence, scale 0 to 100 (0 no effect, 100 complete control)): 60; Plant response rating, Bermudagrass [7, 22]: 80; Plant response rating, Bermudagrass [7, 23]: 85; Plant response rating, Bermudagrass [7, 24]: 100; Cocklebur plant response rating ([8]; postemergence, 0-100 scale): 0; Plant response rating, Cocklebur [8, 19]: 0; Plant response rating, Cocklebur [8, 20]: 0; Plant response rating, Cocklebur [8, 21]: 0; Plant response rating, Cocklebur [8, 22]: 0; Plant response rating, Cocklebur [8, 23]: 0; Plant response rating, Cocklebur [8, 24]: 0; Cocklebur plant response rating ([8]; Preemergence, scale 0 to 100): 0; Ryegrass, Italian plant response rating ([9]; postemergence, 0-100 scale): 98; Plant response rating, Ryegrass, Italian [9, 19]: 100; Plant response rating, Ryegrass, Italian [9, 20]: 100; Plant response rating, Ryegrass, Italian [9, 21]: 100; Plant response rating, Ryegrass, Italian [9, 22]: 100; Plant response rating, Ryegrass, Italian [9, 24]: 100; Ryegrass, Italian plant response rating ([9]; Preemergence, scale 0 to 100): 90; Crabgrass, Large plant response rating ([10]; postemergence, 0-100 scale): 95; Plant response rating, Crabgrass, Large [10, 19]: 100; Plant response rating, Crabgrass, Large [10, 20]: 100; Plant response rating, Crabgrass, Large [10, 21]: 100; Plant response rating, Crabgrass, Large [10, 22]: 80; Plant response rating, Crabgrass, Large [10, 23]: 80; Plant response rating, Crabgrass, Large [10, 24]: 100; Crabgrass, Large plant response rating ([10]; Preemergence, scale 0 to 100): 0; Ragweed plant response rating ([11]; postemergence, 0-100 scale): 0; Plant response rating, Ragweed [11, 19]: 0; Plant response rating, Ragweed [11, 20]: 0; Plant response rating, Ragweed [11, 21]: 0; Plant response rating, Ragweed [11, 22]: 0; Plant response rating, Ragweed [11, 23]: 0; Plant response rating, Ragweed [11, 24]: 0; Ragweed plant response rating ([11]; Preemergence, scale 0 to 100): 0; Soybean plant response rating ([12]; postemergence, 0-100 scale): 0; Plant response rating, Soybean [12, 19]: 0; Plant response rating, Soybean [12, 20]: 0; Plant response rating, Soybean [12, 21]: 10; Plant response rating, Soybean [12, 23]: 0; Velvetleaf plant response rating ([13]; postemergence, 0-100 scale): 0; Plant response rating, Velvetleaf [13, 19]: 0; Plant response rating, Velvetleaf [13, 20]: 0; Plant response rating, Velvetleaf [13, 21]: 0; Plant response rating, Velvetleaf [13, 23]: 0; Plant response rating, Velvetleaf [13, 24]: 0; Velvetleaf plant response rating ([13]; Preemergence, scale 0 to 100): 0; Plant response rating, Russian Thistle [14, 25]: 0; Plant response rating, Russian Thistle [14, 26]: 0; Plant response rating, Russian Thistle ([14]; 62 g ai/ha, scale 0 to 100): 0; Russian Thistle plant response rating ([14]; scale 0 to 100): 0

**Q.** What does the source list for Cc1cc(-c2ccc(C(F)(F)F)cc2)nn1-c1c(O)c(C(C)C)nn(C)c1=O [Compound 27]?
**A.** Plant response rating, Rice [1, 15]: 0; Plant response rating, Rice [1, 16]: 0; Plant response rating, Rice [1, 17]: 0; Plant response rating, Rice [1, 18]: 0; Plant response rating, Sedge, Umbrella [2, 15]: 20; Plant response rating, Sedge, Umbrella [2, 16]: 30; Plant response rating, Sedge, Umbrella [2, 17]: 65; Plant response rating, Sedge, Umbrella [2, 18]: 20; Plant response rating, Barnyardgrass [3, 15]: 0; Plant response rating, Barnyardgrass [3, 16]: 0; Plant response rating, Barnyardgrass [3, 17]: 30; Plant response rating, Barnyardgrass [3, 18]: 0; Plant response rating, Ducksalad [4, 15]: 40; Plant response rating, Ducksalad [4, 16]: 60; Plant response rating, Ducksalad [4, 17]: 75; Plant response rating, Ducksalad [4, 18]: 0; Plant response rating, Goosegrass [5, 22]: 75; Plant response rating, Goosegrass [5, 23]: 95; Plant response rating, Goosegrass [5, 24]: 95; Goosegrass plant response rating ([5]; Preemergence, scale 0 to 100): 0; Plant response rating, Lambsquarters [6, 22]: 0; Plant response rating, Lambsquarters [6, 24]: 0; Lambsquarters plant response rating ([6]; Preemergence, scale 0 to 100): 0; Plant response rating, Bermudagrass [7, 22]: 0; Plant response rating, Bermudagrass [7, 23]: 100; Plant response rating, Bermudagrass [7, 24]: 100; Plant response rating, Cocklebur [8, 22]: 0; Plant response rating, Cocklebur [8, 23]: 0; Plant response rating, Cocklebur [8, 24]: 0; Cocklebur plant response rating ([8]; Preemergence, scale 0 to 100): 0; Plant response rating, Ryegrass, Italian [9, 22]: 0; Plant response rating, Ryegrass, Italian [9, 23]: 70; Plant response rating, Ryegrass, Italian [9, 24]: 95; Ryegrass, Italian plant response rating ([9]; Preemergence, scale 0 to 100): 0; Plant response rating, Crabgrass, Large [10, 22]: 0; Plant response rating, Crabgrass, Large [10, 23]: 0; Plant response rating, Crabgrass, Large [10, 24]: 0; Crabgrass, Large plant response rating ([10]; Preemergence, scale 0 to 100): 0; Plant response rating, Ragweed [11, 22]: 0; Plant response rating, Ragweed [11, 23]: 0; Plant response rating, Ragweed [11, 24]: 0; Ragweed plant response rating ([11]; Preemergence, scale 0 to 100): 0; Plant response rating, Soybean [12, 22]: 0; Plant response rating, Soybean [12, 23]: 0; Plant response rating, Soybean [12, 24]: 0; Soybean plant response rating ([12]; Preemergence, scale 0 to 100): 0; Plant response rating, Velvetleaf [13, 22]: 0; Plant response rating, Velvetleaf [13, 23]: 0; Plant response rating, Velvetleaf [13, 24]: 0; Velvetleaf plant response rating ([13]; Preemergence, scale 0 to 100): 0; Plant response rating, Russian Thistle [14, 25]: 0; Plant response rating, Russian Thistle [14, 26]: 0; Plant response rating, Russian Thistle ([14]; 62 g ai/ha, scale 0 to 100): 0; Russian Thistle plant response rating ([14]; scale 0 to 100): 0
